Results as given in US20260209247A1, “Substituted Tricyclic Compounds” (Lupin Limited, priority 2019, published 2026).

Columns and labels:
[1] = test system: pERK after EGF stimulation in DLD1 cells; test: ERK phosphorylation assay (alphascreen pERK); format: cell-based; details: Homo sapiens, DLD-1, 2 h compound, 200 ng/ml hEGF for 5 minutes, read-out: ERK phosphorylation inhibition IC50
Protocol: Compounds were tested for their ability to inhibit pERK after EGF stimulation in DLD1 cells. Cells were seeded at 0.2 million cells per well in 96 well cell binding tissue culture plate in 100 μL complete media and were allowed to settle overnight (16 to 20 h). On the following day, cells were treated with various concentrations of test compounds for 2 h followed by stimulation with 200 ng/ml hEGF (diluted in PBS) for 5 minutes. Cells were then washed once with PBS and lysed in freshly prepared lysis buffer (provided with alphascreen surefire ERK1/2 p-T202/Y204 assay kit, cat no: TGRESB10K, Perkin Elmer). Lysis was carried out in plate shaker for 10-15 mins. Lysate was transferred to […] white opti-plate (Perkin Elmer) and alphascreen for pERK was carried out as per manufacturer's instructions. Plate was read after 2 h incubation in plate shaker at […] 300 RPM, 25-28° C. The difference between the unstimulated and stimulated Vehicle control is considered as 100% ERK phosphorylation, and % inhibition of compounds is calculated accordingly.

[2] = target: T1, protein-protein interaction between hSOS1 and hKRASG12C (Homo sapiens, UniProt Q07889); test: KRAS-SOS1 interaction assay (HTRF); format: binding; details: GST-hSOS1 564-1049aa, HIS-hKRASG12C, read-out: KRAS-SOS1 Interaction inhibition IC50
T1 construct: GST-hSOS1, 564-1049aa expressed and purified in-house
T1 sequence (Q07889 564-1049): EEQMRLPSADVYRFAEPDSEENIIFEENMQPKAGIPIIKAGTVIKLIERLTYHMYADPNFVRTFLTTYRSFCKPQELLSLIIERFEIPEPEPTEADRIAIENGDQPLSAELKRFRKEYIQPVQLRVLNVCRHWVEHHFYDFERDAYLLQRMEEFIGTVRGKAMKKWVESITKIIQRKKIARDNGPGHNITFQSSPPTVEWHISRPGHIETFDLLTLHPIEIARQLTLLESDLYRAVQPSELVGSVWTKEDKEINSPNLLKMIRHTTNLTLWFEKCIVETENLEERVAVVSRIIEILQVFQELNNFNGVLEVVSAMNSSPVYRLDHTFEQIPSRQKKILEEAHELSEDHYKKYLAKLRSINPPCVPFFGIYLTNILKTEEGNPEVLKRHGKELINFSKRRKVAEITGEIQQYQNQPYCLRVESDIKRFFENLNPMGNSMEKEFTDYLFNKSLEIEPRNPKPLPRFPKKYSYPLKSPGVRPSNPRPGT
Protocol: Interaction assay was conducted to evaluate the ability of the compounds to disrupt the protein-protein interactions between hSOS1 and hKRASG12C. Inhibitory effect of compounds on GST-hSOS1, 564-1049aa expressed and purified in-house and HIS-hKRASG12C (R06-32DH, SignalChem) interaction was assessed using HTRF detection technology in biochemical assay. Compounds were pre-incubated with 10-50 nM working solution of hSOS1 per well of a 384 well plate (Perkin Elmer, Cat #6007290) for 10 min at 20° C. in the assay buffer containing 5 mM HEPES, pH 7.4, 150 mM NaCl, 10 mM EDTA, 1 mM DTT, 0.05% BSA fraction V and 0.0025% Igepal. Reaction was initiated by adding 100-300 nM working solution of hKRASG12C in assay buffer. Total assay volume was 15 μL. Reaction was continued for 30-60 min at 20° C. Then detection solution containing MAb Anti-GST-d2 (#61GSTDLA, Cisbio BioAssays) and MAb Anti-HIS-Tb (#61HISTLA, Cisbio BioAssays), all prepared in HTRF detection buffer (#61DB10RDF, Cisbio BioAssays) was added and further incubated for 30-60 min at 20° C. HTRF signal was recorded in PHERAStar microplate reader. Ratio of signal obtained at 665 nm and 620 nm was used to compute the percent inhibition of compound utilizing the following formula: […]

[3] = target: T2, nucleotide exchange on hKRASG12C mediated by hSOS1 (Homo sapiens, UniProt Q07889); test: Guanine nucleotide exchange assay (GNEA, HTRF); format: biochemical; details: HIS-hSOS1 564-1049aa mediated GTP loading onto GST-hKRASG12C 1-169aa, read-out: Guanine nucleotide exchange inhibition IC50
T2 construct: HIS-hSOS1, 564-1049aa mediated GTP loading onto GST-hKRASG12C; His (N); made in house
T2 sequence (Q07889 564-1049): T1 sequence (Q07889 564-1049)
Protocol: Example-154: Guanine nucleotide exchange assay (GNEA) GNEA assay was conducted to evaluate the effects of compounds on the nucleotide exchange on hKRASG12C mediated by hSOS1. Inhibitory effect of compounds on HIS-hSOS1, 564-1049aa mediated GTP loading onto GST-hKRASG12C, 1-169aa both expressed and purified in-house was assessed using HTRF detection technology in biochemical assay. Compounds were pre-incubated with hSOS1 working solution containing 10-50 nM hSOS1 and 200 nM EDA-GTP-DY-647P1 (Custom manufactured, Jena Biosciences) per well of a 384 well plate (Perkin Elmer, Cat #6007290) for 10 min at 20° C. in the assay buffer containing 10 mM HEPES, pH 7.4, 150 mM NaCl, 5 mM MgCl2, 1 mM DTT, 0.05% BSA fraction V and 0.0025% Igepal. Reaction was initiated by adding working solution of hKRASG12C containing 25-125 nM hKRASG12C and MAb Anti-GST-Tb (#61GSTTLA, Cisbio BioAssays) in assay buffer. Total assay volume was 15 μL. Reaction was continued for 30-60 min at 20° C. HTRF signal was recorded in PHERAStar microplate reader. Ratio of signal obtained at 665 nm and 620 nm was used to compute the percent inhibition of compound as follows.

Structure (SMILES)	IC50 [1]	IC50 [2]	IC50 [3]
Cc1nc(N[C@H](C)c2cccc(C(F)(F)[C@](C)(O)CO)c2F)c2cc3c(cc2n1)OC(C)(C)C(=O)N3C (racemic) [Compound 23b, 4-(((R/S)-1-(3-((R/S)-1,1-difluoro-2,3-dihydroxy-2-methylpropyl)-2-fluorophenyl)ethyl)amino)-2,6,8,8-tetramethyl-6H-[1,4]oxazino[3,2-g]quinazolin-7(8H)-one]	0.001 to 0.2 µM	0.001 to 0.01 µM	0.001 to 0.03 µM
Cc1nc(N[C@H](C)c2cccc(C(F)(F)C(C)(C)O)c2F)c2cc3c(cc2n1)N(C)[C@@H](C)C(=O)N3C (racemic) [Compound 27a, (S/R)-4-(((R)-1-(3-(1,1-difluoro-2-hydroxy-2-methylpropyl)-2-fluorophenyl)ethyl)amino)-2,6,8,9-tetramethyl-8,9-dihydropyrazino[2,3-g]quinazolin-7(6H)-one]	0.001 to 0.2 µM	0.001 to 0.01 µM	0.001 to 0.03 µM
Cc1nc(N[C@H](C)c2cccc(C(F)(F)CO)c2F)c2cc3c(cc2n1)O[C@@H](C)CN3C (racemic) [Compound 36a, 2,2-difluoro-2-(2-fluoro-3-((R)-1-(((S/R)-2,6,8-trimethyl-7,8-dihydro-6H-[1,4]oxazino[3,2-g]quinazolin-4-yl)amino)ethyl)phenyl)ethan-1-ol]	0.001 to 0.2 µM	0.001 to 0.01 µM	0.001 to 0.03 µM
COC[C@](C)(O)C(F)(F)c1cccc([C@@H](C)Nc2nc(C)nc3cc4c(cc23)N(C)C(=O)C(C)(C)O4)c1F (racemic) [Compound 53a, 4—(((R)-1-(3-((S/R)-1,1-difluoro-2-hydroxy-3-methoxy-2-methylpropyl)-2-fluorophenyl)ethyl)amino)-2,6,8,8-tetramethyl-6H-[1,4]oxazino[3,2-g]quinazolin-7(8H)-one]	0.001 to 0.2 µM	0.001 to 0.01 µM	0.001 to 0.03 µM
Cc1nc(N[C@H](C)c2cccc(C(F)(F)C(C)(C)O)c2F)c2cc3c(cc2n1)N(C)C(=O)C3C (mixture of isomers) [Compound 95, (R&S)-4-(((R)-1-(3-(1,1-difluoro-2-hydroxy-2-methylpropyl)-2-fluorophenyl)ethyl)amino)-2,6,8-trimethyl-6,8-dihydro-7H-pyrrolo[3,2-g]quinazolin-7-one]	0.001 to 0.2 µM	0.011 to 0.025 µM	0.031 to 0.13 µM
CO[C@]1(C)C(=O)N(C)c2cc3nc(C)nc(N[C@H](C)c4cccc(C(F)(F)C(C)(C)O)c4F)c3cc21 (racemic) [Compound 96a, (S/R)-4-(((R)-1-(3-(1,1-difluoro-2-hydroxy-2-methylpropyl)-2-fluorophenyl)ethyl)amino)-6-methoxy-2,6,8-trimethyl-6,8-dihydro-7H-pyrrolo[3,2-g]quinazolin-7-one]	0.001 to 0.2 µM	0.011 to 0.025 µM	0.031 to 0.13 µM
COCC1(C)C(=O)N(C)c2cc3c(N[C@H](C)c4cccc(C(F)(F)C(C)(C)O)c4F)nc(C)nc3cc21 (mixture of isomers) [Compound 98, (R&S)-4-(((R)-1-(3-(1,1-difluoro-2-hydroxy-2-methylpropyl)-2-fluorophenyl)ethyl)amino)-8-(methoxymethyl)-2,6,8-trimethyl-6,8-dihydro-7H-pyrrolo[2,3-g]quinazolin-7-one]	0.001 to 0.2 µM	0.011 to 0.025 µM	0.001 to 0.03 µM
COC[C@@]1(C)C(=O)N(C)c2cc3c(N[C@H](C)c4cccc(C(F)(F)C(C)(C)O)c4F)nc(C)nc3cc21 (racemic) [Compound 98b, (S/R)-4-(((R)-1-(3-(1,1-difluoro-2-hydroxy-2-methylpropyl)-2-fluorophenyl)ethyl)amino)-8-(methoxymethyl)-2,6,8-trimethyl-6,8-dihydro-7H-pyrrolo[2,3-g]quinazolin-7-one]	0.001 to 0.2 µM	0.011 to 0.025 µM	0.031 to 0.13 µM
Cc1nc(N[C@H](C)c2cccc(C(F)(F)C(C)(C)O)c2F)c2cc3c(cc2n1)C(C)C(=O)N3C (mixture of isomers) [Compound 99, (R&S)-4-(((R)-1-(3-(1,1-difluoro-2-hydroxy-2-methylpropyl)-2-fluorophenyl)ethyl)amino)-2,6,8-trimethyl-6,8-dihydro-7H-pyrrolo[2,3-g]quinazolin-7-one]	0.001 to 0.2 µM	0.001 to 0.01 µM	0.001 to 0.03 µM
CCO[C@]1(C)C(=O)N(C)c2cc3c(N[C@H](C)c4cccc(C(F)(F)C(C)(C)O)c4F)nc(C)nc3cc21 (racemic) [Compound 121b, (S/R)-4-(((R)-1-(3-(1,1-difluoro-2-hydroxy-2-methylpropyl)-2-fluorophenyl)ethyl)amino)-8-ethoxy-2,6,8-trimethyl-6,8-dihydro-7H-pyrrolo[2,3-g]quinazolin-7-one]	0.001 to 0.2 µM	0.001 to 0.01 µM	0.001 to 0.03 µM
CO[C@]1(C)C(=O)N(C)c2cc3c(N[C@H](C)c4cccc(C(F)(F)[C@](C)(O)CN(C)C)c4F)nc(C)nc3cc21 (racemic) [Compound 135a, (S/R)-4-(((R)-1-(3-((S/R)-3-(dimethylamino)-1,1-difluoro-2-hydroxy-2-methylpropyl)-2-fluorophenyl)ethyl)amino)-8-methoxy-2,6,8-trimethyl-6,8-dihydro-7H-pyrrolo[2,3-g]quinazolin-7-one]	0.001 to 0.2 µM	0.001 to 0.01 µM	0.001 to 0.03 µM
CO[C@]1(C)C(=O)N(C)c2cc3c(N[C@H](C)c4cccc(C(F)(F)[C@@](C)(O)CN(C)C)c4F)nc(C)nc3cc21 (racemic) [Compound 135b, (S/R)-4-(((R)-1-(3-((R/S)-3-(dimethylamino)-1,1-difluoro-2-hydroxy-2-methylpropyl)-2-fluorophenyl)ethyl)amino)-8-methoxy-2,6,8-trimethyl-6,8-dihydro-7H-pyrrolo[2,3-g]quinazolin-7-one]	0.001 to 0.2 µM	0.001 to 0.01 µM	0.031 to 0.13 µM
Cc1nc(N[C@H](C)c2cccc(C(F)(F)[C@@](C)(O)CO)c2F)c2cc3c(cc2n1)OC(C)(C)C(=O)N3C (single isomer, unassigned) [Compound 23a, 4-(((R/S)-1-(3-((S/R)-1,1-difluoro-2,3-dihydroxy-2-methylpropyl)-2-fluorophenyl)ethyl)amino)-2,6,8,8-tetramethyl-6H-[1,4]oxazino[3,2-g]quinazolin-7(8H)-one]	0.001 to 0.2 µM	0.001 to 0.01 µM	0.001 to 0.03 µM
Cc1nc(N[C@H](C)c2cccc(C(F)(F)C(C)(C)O)c2F)c2cc3c(cc2n1)N(C)C(C)C(=O)N3C (single isomer, unassigned) [Compound 27b]	0.001 to 0.2 µM	0.001 to 0.01 µM	0.001 to 0.03 µM
